Source: patent US7771931B2, “Methods for diagnosing and treating diseases and conditions associated with protein kinase Cλ” (The General Hospital Corporation, priority 2001, dated 2010)

What was measured:
PKCλ = test: Antisense morpholino injection into zebrafish embryos; format: in vivo; conditions: injected into 1-4 cell embryos
Experimental: An antisense morpholino oligonucleotide of sequence 5′-[…]-3′ (SEQ ID NO:6) (GeneTools, LLC) was dissolved at a concentration of […] in 1× Danieau's buffer (5 mM Hepes pH 7.6, 58 mM NaCl, 0.7 mM KCl, 0.6 mM Ca (NO3)2, 0.4 mM MgSO4). One nL of this solution or 1× Danieau's buffer was injected into each 1-4 cell embryo before allowing the embryos to develop at 28.50° C.

C. elegans embryo = test: Early development of the C. elegans embryo (par-2::GFP strain KK871); format: in vivo; conditions: 34 μM concentramide
Experimental: C. eleganis strain KK871 (par-2::GFP) was maintained at 25° C. For each sample, 10-15 adult worms were soaked in 80 μL M9 medium containing 34 μM concentramide, 0.25% dimethyl sulfoxide for 30-60 minutes. Worms were then cut open with a scalpel, and embryos were mounted on 2% agarose pads with coverslips. Embryos were allowed to develop at 25° C. before being photographed live.

zebrafish embryos [1] = test: Anterior-posterior patterning by in situ hybridization (Pax2.1, cmlc2), 18-somite zebrafish embryos; format: in vivo
Experimental: (§1) Digoxigenin-labeled antisense RNA probes were generated by ill vitro transcription for cmlc2 (Yelon et al., supra), vmhc (Yelon et al., supra), and pax2.1 (Krauss et al., Development 113:1193-1206, 1991). In situ hybridization was carried out as described (Oxtoby et al., Nucleic Acids Res. 21:1087-1095, 1993). For whole-mount immunohistochemistry, embryos were fixed in 4% paraformaldehyde in phosphate-buffered saline (S46 and 3G8) or 80% methanol, 20% dimethyl sulfoxide (α-ZO-1), permeablized in acetone for 30 minutes at −20° C. (3G8), blocked with 5% fetal bovine serum, and incubated with the antibodies S46, 3G8 (Vize et al., Dev. Biol. 171:531-540, 1995), or α-ZO-1. An anti-mouse-horseradish peroxidase conjugate was used as secondary antibody for S46 and 3G8, and an Alexa 488-labeled anti-mouse secondary antibody was used for α-ZO-1 staining.

zebrafish embryos [2] = test: Retina histology of treated zebrafish embryos (hematoxylin-eosin, dapi); format: in vivo; conditions: concentramide-treated embryos
Description: (§2) Fixed embryos were dehydrated, embedded in plastic (JB4, Polysciences, Inc.), and sectioned at 2-7 μm. Retinal sections were stained with hematoxylin-eosin or dapi.

mammalian cells = test: Bromodeoxyuridine incorporation in mammalian cells; format: cell-based
zebrafish embryos [3] = test: Small molecule treatment of developing zebrafish embryos, visual inspection of heart patterning
Description: Visual inspection of the transparent embryos was used to identify small molecules that affect the global patterning of the heart.

zebrafish embryos [4] = test: Fusion order of heart primordia (cmlc2 expression, 16- and 18-somite stages); format: in vivo
Experimental: as §1

zebrafish embryos [5] = test: Kidney epithelium of treated zebrafish embryos (apical marker 3G8); format: in vivo; conditions: embryos exposed to concentramide
Experimental: as §1, §2

yeast = test: Rate of proliferation of yeast; format: cell-based

5′-CTGTCCCGCAGCGTGGGCATTATGG-3′ (all phosphorodiamidate morpholino (PMO)) [antisense morpholino oligomers]
phenotype of injected embryos compared with has mutation (PKCλ): phenocopy the mutation entirely

CCCCCc1ccc(-c2ccc(/C=C/C(N)=O)cc2)nc1 [concentramide]
Par2 localization (C. elegans embryo): retain proper localization of Par2 to the posterior pole
asymmetry of first cell division (C. elegans embryo): normally asymmetric first cell division
completion of development (C. elegans embryo): fail to complete development
cytokinesis (C. elegans embryo): cytolinetic defects
distance between Pax2.1-expressing cells in the eyes and at the midbrain/hindbrain boundary (zebrafish embryos [1]; 18-somite embryos): reduced
distance between the anterior edge of the cmlc2-expressing field and the anterior extreme of the embryo (zebrafish embryos [1]; 18-somite stage, n=12, wild-type 3.1+/−0.2): 2.2+/−0.3 arbitrary units
defects in cell polarity, RPE continuity, or lamination of the retina (zebrafish embryos [2]): do not exhibit defects
effect on bromodeoxyuridine incorporation (mammalian cells): no effect
phenotype at 6 μM compared with 6 nM (zebrafish embryos [3]; 6 μM versus 6 nM): virtually the same phenotype
brain development (zebrafish embryos [3]; concentramide-treated embryos): develop abnormally
heart phenotype of exposed embryos (zebrafish embryos [3]; embryos exposed to concentramide): compact hearts that do not sustain a circulation
cell death (zebrafish embryos [3]; general cytotoxicity): no increase in cell death is apparent
development relative to untreated siblings (zebrafish embryos [3]; general cytotoxicity): not delayed
stage before which concentramide must be present to induce the concentric chamber morphology (zebrafish embryos [3]; more precise staging, approximately 15 hpf): < 14 somite stage
potency on specific molecular target versus other proteins affecting visible developmental processes (zebrafish embryos [3]; same phenotype at 6 μM and 6 nM): at least 1,000 times
heart morphology at 24 hpf (zebrafish embryos [3]; treated after 17 hpf): wild-type heart morphology
heart morphology at 24 hpf (zebrafish embryos [3]; treated at any time prior to 14 hpf): concentric chamber morphology
brain and heart phenotype with timed treatment (zebrafish embryos [3]; treated between 9 and 14 hpf, concentric heart chamber phenotype preserved): eliminates this brain defect
fusion of posterior ends of the heart field (zebrafish embryos [4]): failure to merge the posterior ends
irregular epithelial cell shapes and gaps between cells in the kidney (zebrafish embryos [5]): did not observe these defects
effect on rate of proliferation of yeast (yeast): no effect
